Experimental data published in patent publication EP3360550A1, “MOLECULES AND PHARMACEUTICAL COMPOSITIONS, IN PARTICULAR FOR TREATING A GENETIC BLOOD DISORDER” (Université de La Réunion, priority 2017, dated 2018).

Assays:
RBCs = assay: Control of hemolysis (RBC count with CASY Cell Counter and Analyzer); format: cell-based; conditions: for decrease of RBC concentration compared to vehicle (DMSO) alone: 0.1 mM, 30 min at room temperature; for RBCs/ml (x10^6): RBCs at 6x10^6 cells/ml incubated with molecule at 0.1 mM for 30 min at room temperature
Procedure: At the end of the 30 min of incubation with the molecules, the number of RBC for the control of hemolysis was measure by using CASY® Cell Counter and Analyzer.
For hemolysis assays, RBCs were suspended at 6x10^6 cells/ml in the Hanks/0.4% BSA buffer and the concentration measured accurately using the CASY® Cell Counter and Analyzer. RBCs were then incubated or not with solutions comprising either Molecule 1, Molecule 2 or Molecule 3 at 0.1 mM or DMSO, for 30 min at room temperature. After this incubation time cell concentration was measured again using CASY® Cell Counter and Analyzer (Table 1). If hemolysis occurs during this incubation time it will be reflected by a decrease in the RBC concentration.

laminin 521 = assay: Red blood cell adhesion to laminin 521 under flow conditions; format: cell-based, human; conditions: for RBC adhesion to laminin: RBCs from sickle cell disease patients incubated with molecule at 0.1 mM for 30 min at room temperature, 3 blood samples, Figure 1; for inhibition of RBC adhesion to laminin (dose effect): increasing concentrations 50, 100 and 200 µM, same conditions as in Example 1, Figure 2
Procedure: Red blood cell adhesion to laminin 521 was measured under flow conditions using Vena8 Endothelial+™ biochips (internal channel dimensions: length 20 mm, width 0.8 mm, height 0.12 mm) and ExiGo™ Nanopumps (Cellix Ltd, Dublin, Ireland). Three different solutions were prepared with either Molecule 1, Molecule 2 or Molecule 3 (0.1 mM) by solubilizing Molecule 1, 2 or 3 using DMSO. Recombinant human laminin 521 (BioLamina) at 5 ng/µl was immobilized on the internal surface of the biochips at 4°C overnight. RBCs from sickle cell disease patients were suspended at 5x10^7 cells/ml in Hanks balanced salt solution, without calcium chloride and magnesium sulfate (Sigma-Aldrich) supplemented with 0.4% BSA, and incubated with the solution comprising either Molecule 1, Molecule 2 or Molecule 3 at 0.1 mM or DMSO for 30 min at room temperature (20°C) and perfused through the biochip channels for 10 min at a shear stress of 0.5 dyn/cm^2 followed by a washout at the same shear stress with the buffer alone for 30 min. Five minutes washouts with the Hanks/0.4% BSA buffer were performed at 1, 2, 3, 4 and 5 dyn/cm^2. After each wash, adherent RBCs were counted in 7 representative areas along the centerline of each channel using the AxioObserver Z1 microscope and ZEN analysis software (Carl Zeiss, Le Pecq, France) and the mean number of adherent RBCs was determined for each condition and each washout step (Figure 1). Images of the same 7 areas were obtained throughout each experiment. Three adhesion assays were performed with 3 different blood samples. RBC adhesion to laminin was inhibited when the RBC suspension was incubated with Molecule 2 or 3, but not Molecule 1.
To address the dose effect of the molecules, adhesion assays were performed in the same conditions as in Example 1, using the following concentrations for Molecule 1, 2 or 3: • 50, 100 and 200 µM.

Row | Compound | decrease of RBC concentration compared to vehicle (DMSO) alone (RBCs) | RBCs/ml (x10^6) (RBCs) | RBC adhesion to laminin (laminin 521) | inhibition of RBC adhesion to laminin (dose effect) (laminin 521)
1 | CCC(=O)N1CCc2ccc(OCc3nc(C(=O)NCc4ccccc4)co3)cc2C1c1ccc(C)cc1 (stereo not drawn) [Molecule 1] | no decrease | 6.04 RBCs/ml (x10^6) |  | 
2 | Cc1c(CC(=O)NC(C(=O)O)c2ccccc2)c(=O)oc2c(C)c3oc4c(c3cc12)CCCC4 (stereo not drawn) [Molecule 2] |  | 5.55 RBCs/ml (x10^6) | inhibited | increasing inhibition
3 | O=S(=O)(O)CCCn1c(=NN=Cc2c(O)ccc3ccccc23)sc2ccccc21 [Molecule 3] | no decrease | 6.02 RBCs/ml (x10^6) | inhibited | increasing inhibition
